Measurements taken from patent publication US11197908B2, “Peptoids and methods for attenuating inflammatory response” (THE BOARD OF TRUSTEES OF THE UNIVERSITY OF ARKANSAS, priority 2018, dated 2021).
Where a SMILES comes first, the peptide text is derived from it. [ ]: non-standard residue; d: D form. N(1S-Me-propyl)Gly = CC[C@H](C)NCC(=O)O; Nspe = C[C@H](NCC(=O)O)c1ccccc1; Nlys = NCCCCNCC(=O)O

Legend:
[1] = test system: IL-1β; experiment: IL-1β in supernatant of THP-1 macrophages co-incubated with peptoid and LPS (ELISA); assay type: cell-based, human; settings: peptoid 50 μM with 2 ng/mL LPS, 3 days; vs LPS alone
Protocol: THP-1 monocytes were differentiated into macrophages through exposure to phorbol 12-myristate 13-acetate (PMA) for three days prior to experimentation 10. […] Upon differentiation, these cells were then incubated (3 days) with media containing JPT1a (50, 10, or 2 μM) alone or JPT1a (50, 10, or 2 μM) in the presence of low-dose (2 ng/mL) lipopolysaccharide (LPS) as a chronic pro-inflammatory stimulus 11. Treatment with 2 ng/mL LPS alone served as a positive control, while treatment with an equivalent volume of buffer diluted into media served as the vehicle. Cellular supernatant was harvested on day 3 12; these samples were immediately centrifuged at 1200 rpm for 10 min at 25° C. to remove any cells or debris. […] All multi-channel images were converted to TIFF file format via ImageJ64 software for quantitative image analysis using a custom subroutine written in Matlab™ software to obtain the average RAGE expression per volume of cells, and the data generated was assessed for statistical significance using GraphPad Prism 7.0 software 15.
As shown in FIGS. 2B-2D, THP-1 macrophages were treated with JPT1a alone (white) or in the presence of a chronic low-dose (2 ng/mL) of LPS (grey), for 3 days prior to supernatant harvest and storage. Examination of the supernatant via ELISA determined the concentrations of (FIG. 2B) IL-1β, (FIG. 2C) IL-6, and (FIG. 2D) IL-8. […]

[2] = test system: IL-8; experiment: IL-8 expression in previously LPS-stimulated THP1 macrophages (ELISA); assay type: cell-based, human; settings: 25, 5, 1 μM added after 48 h of 2 ng/mL LPS, additional 24 h
Protocol: THP-1 monocytes were differentiated as described above 20. Upon differentiation, these cells were then incubated (48 h) with media containing low-dose (2 ng/mL) LPS as a chronic pro-inflammatory stimulus 21. Following incubation, JPT1a or JPT1 was added for final concentrations of 25, 5, and 1 μM 22, and cells were incubated an additional 24 h. Treatment with 2 ng/mL LPS alone served as a positive control, while treatment with an equivalent volume of buffer diluted into media served as the vehicle. Media was collected for later assessment of cytokines via ELISA as described above 23. Cells were fixed and stained for RAGE, phalloidin (cytoplasmic marker), and DAPI (nuclear marker) 24. Each channel was imaged with a Zeiss LSM 510 META Confocal Scanning Laser Microscope using a plan-neofluar 40×/1.3 oil DIC immersion objective; three of these multi-channel images were obtained from each slide in each experiment. 25 All multi-channel images were converted to TIFF file format via ImageJ64 software for quantitative image analysis using a custom subroutine written in Matlab™ software to obtain the average RAGE expression per volume of cells, and the data generated was assessed for statistical significance using GraphPad Prism 7.0 software 26.
As shown in FIGS. 4B-4D, THP1 macrophages were treated with low-dose LPS at 2 ng/mL. […]

[3] = target: RAGE (Homo sapiens, UniProt Q15109); experiment: RAGE binding to peptoid-coated 96-well plates, Scatchard plot; settings: plates coated with 500 nM peptoid; JPT1a n=3 average, JPT1 n=1
Chain of RAGE (Homo sapiens, UniProt Q15109) (Q15109 23-404): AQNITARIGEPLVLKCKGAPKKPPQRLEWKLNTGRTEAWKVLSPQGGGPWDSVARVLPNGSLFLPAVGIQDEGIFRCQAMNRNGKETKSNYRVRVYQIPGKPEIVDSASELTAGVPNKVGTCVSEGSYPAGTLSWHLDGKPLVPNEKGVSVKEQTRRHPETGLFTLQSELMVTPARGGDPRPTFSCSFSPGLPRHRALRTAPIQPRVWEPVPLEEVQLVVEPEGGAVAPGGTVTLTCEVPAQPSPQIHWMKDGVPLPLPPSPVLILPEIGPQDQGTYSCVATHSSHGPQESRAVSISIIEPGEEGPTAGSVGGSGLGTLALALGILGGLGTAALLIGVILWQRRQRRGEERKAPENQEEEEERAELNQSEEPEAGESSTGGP
Protocol: As shown in FIGS. 7A-7D, 96-well plates coated with 500 nM JPT1a were treated with concentrations of RAGE (FIG. 7A) or E-cadherin (FIG. 7B) ranging from 1 to 500 nM. Values are reported as the average concentration of bound protein determined from all experiments. Error bars indicate SEM, n=2-5. […] In FIG. 7D, 96-well plates coated with 500 nM JPT1 were treated with concentrations of RAGE ranging from 1 to 350 nM.

[4] = test system: RAGE; experiment: RAGE upregulation in THP-1 macrophages co-incubated with peptoid and low-dose LPS (confocal imaging); assay type: cell-based, human; settings: 3 days
Protocol: THP-1 monocytes were differentiated into macrophages through exposure to phorbol 12-myristate 13-acetate (PMA) for three days prior to experimentation 10. […] Upon differentiation, these cells were then incubated (3 days) with media containing JPT1a (50, 10, or 2 μM) alone or JPT1a (50, 10, or 2 μM) in the presence of low-dose (2 ng/mL) lipopolysaccharide (LPS) as a chronic pro-inflammatory stimulus 11. Treatment with 2 ng/mL LPS alone served as a positive control, while treatment with an equivalent volume of buffer diluted into media served as the vehicle. Cellular supernatant was harvested on day 3 12; these samples were immediately centrifuged at 1200 rpm for 10 min at 25° C. to remove any cells or debris. The top 80% of this volume was subsequently removed and stored at −80° C. for later assessment of cytokines via ELISA. Cells were fixed and stained for RAGE, phalloidin (cytoplasmic marker), and DAPI (nuclear marker) 13. Each channel was imaged with a Zeiss LSM 510 META Confocal Scanning Laser Microscope using a plan-neofluar 40×/1.3 oil DIC immersion objective; three of these multi-channel images were obtained from each slide in each experiment 14. All multi-channel images were converted to TIFF file format via ImageJ64 software for quantitative image analysis using a custom subroutine written in Matlab™ software to obtain the average RAGE expression per volume of cells, and the data generated was assessed for statistical significance using GraphPad Prism 7.0 software 15.
(§1) Images acquired via confocal microscopy were analyzed via custom MATLAB™ subroutine to determine the average quantity of RAGE present within a given volume of cells. Results within each experiment are normalized to the positive control (2 ng/mL LPS alone), indicated by the dashed line at 1. Significance relative to positive control is indicated as ** p<0.01. Error bars indicate SEM, n=4.
as §1, with “1.0.” for “1. Significance relative to positive control is indicated as ** p<0.01.”, “n=2.” for “n=4.”

Compound: CC[C@H](C)N(CC(=O)N(CC(=O)N(CC(=O)N(CC(=O)N(CC(=O)N(CC(=O)N(CC(N)=O)[C@@H](C)c1ccccc1)[C@@H](C)c1ccccc1)[C@@H](C)CC)[C@@H](C)c1ccccc1)[C@@H](C)c1ccccc1)[C@@H](C)CC)C(=O)CNCCCCN [JPT1a] (H-[Nlys][N(1S-Me-propyl)Gly][N(1S-Me-propyl)Gly][Nspe][Nspe][N(1S-Me-propyl)Gly][Nspe][Nspe]-NH2)
- LPS-induced production of IL-1β [1]: significantly attenuates
- IL-8 production of previously stimulated macrophages [2]: does not affect cytokine production
- Kd [3]: 0.0518 ± 0.0073 µM
- upregulation in RAGE expression in the presence of LPS ([4]; peptoid 50, 10 or 2 μM with 2 ng/mL LPS, normalized to LPS alone): reduced in a dose-dependent and significant manner
- expression of RAGE, peptoid alone ([4]; peptoid alone (no LPS), relative to the control): does not provoke significant response or upregulation
